Data published in ChEMBL document CHEMBL6127153, “Hybrids of Membrane-Translocating Antimicrobial Peptides Show Enhanced Activity through Membrane Permeabilization” (ACS Med Chem Lett, 2024).
Converted amounts (≈) assume the structure as drawn. The source made the active and inactive calls. No cut-off for these calls is given here.

What was measured:
Escherichia coli = assay: Antibacterial activity against Escherichia coli Top10 assessed as inhibition of bacterial growth at 100 uM incubated for 3 hrs by radial diffusion assay; format: functional, organism-based
Bacillus subtilis [1] = assay: Antibacterial activity against Bacillus subtilis ATCC6051 assessed as inhibition of bacterial growth at 100 uM incubated for 3 hrs by radial diffusion assay; format: functional, organism-based
Cell membrane [2] = assay: Induction of membrane translocation in Escherichia coli spheroplasts assessed as increase in fluorescence intensity using FITC-labeled compound by confocal microscopy; format: subcellular
HEK293 = assay: Cytotoxicity against HEK293 cells assessed as effect on cell metabolic activity at 18.2 uM incubated for overnight by MTS assay; format: toxicity, cell-based; conditions: human, hek293, 18.2 µM
Cell membrane [3] = assay: Induction of membrane permeabilization in Escherichia coli assessed as increase in fluorescence intensity at 2 uM by PI staining based fluorescence spectrophotometric analysis; format: subcellular
Bacillus subtilis [4] = assay: Antibacterial activity against Bacillus subtilis ATCC6051 assessed as inhibition of bacterial growth incubated for 1 hr followed by TSB addition and measured after 18 to 24 hrs by microbroth dilution assay; format: functional; conditions: time 19-25 hrs

In the case of `CC[C@H](C)[C@H](NC(=O)[C@H](CCCNC(=N)N)NC(=O)[C@@H](NC(=O)[C@H](CCCCN)NC(=O)[C@H](CCCCN)NC(=O)[C@H](CC(N)=O)NC(=O)[C@H](CC(=O)O)NC(=O)[C@H](CCCNC(=N)N)NC(=O)[C@H](C)NC(=O)[C@H](C)NC(=O)[C@H](CCCCN)NC(=O)[C@H](CCCNC(=N)N)NC(=O)[C@H](CC(C)C)NC(=O)[C@H](CC(C)C)NC(=O)[C@H](CCCNC(=N)N)NC(=O)[C@H](Cc1cnc[nH]1)NC(=O)[C@@H](NC(=O)[C@H](CCCNC(=N)N)NC(=O)CNC(=O)[C@@H](NC(=O)[C@@H]1CCCN1C(=O)[C@H](Cc1c[nH]c2ccccc12)NC(=O)[C@H](CCC(N)=O)NC(=O)[C@H](CC(C)C)NC(=O)CNC(=O)[C@H](C)NC(=O)[C@H](CCCNC(=N)N)NC(=O)[C@H](CO)NC(=O)[C@H](CO)NC(=O)[C@H](CCCNC(=N)N)NC(=O)[C@@H](N)[C@@H](C)O)C(C)C)C(C)C)[C@@H](C)O)C(=O)N[C@@H](Cc1c[nH]c2ccccc12)C(=O)N1CCC[C@H]1C(=O)N[C@@H](CCCNC(=N)N)C(=O)N[C@@H](Cc1cnc[nH]1)C(=O)N[C@@H](CC(C)C)C(=O)N[C@@H](CCC(N)=O)C(=O)N[C@@H](CC(C)C)C(=O)N[C@@H](C)C(=O)N[C@H](C(=O)N[C@@H](CCCNC(=N)N)C(=O)N[C@@H](CC(N)=O)C(=O)O)C(C)C`, the Activity (Escherichia coli) is reported as “Active”, the Activity (Bacillus subtilis [1]) is reported as “Active” and the Activity (Cell membrane [2]) is reported as “Active”. The Activity (HEK293) was “Non-Toxic” and the Activity (Cell membrane [3]) was “Active”.

In the case of `CC[C@H](C)[C@H](NC(=O)[C@H](CCCNC(=N)N)NC(=O)[C@@H](NC(=O)[C@H](CCCCN)NC(=O)[C@H](CCCCN)NC(=O)[C@H](CC(N)=O)NC(=O)[C@H](CC(=O)O)NC(=O)[C@H](CCCNC(=N)N)NC(=O)[C@H](C)N)[C@@H](C)O)C(=O)N[C@@H](Cc1c[nH]c2ccccc12)C(=O)N1CCC[C@H]1C(=O)N[C@@H](CCCNC(=N)N)C(=O)N[C@@H](Cc1cnc[nH]1)C(=O)N[C@@H](CC(C)C)C(=O)N[C@@H](CCC(N)=O)C(=O)N[C@@H](CC(C)C)C(=O)N[C@@H](C)C(=O)N[C@H](C(=O)N[C@@H](CCCNC(=N)N)C(=O)N[C@@H](CC(N)=O)C(=O)N[C@H](C(=O)N[C@@H](CCCNC(=N)N)C(=O)N[C@@H](CO)C(=O)N[C@@H](CO)C(=O)N[C@@H](CCCNC(=N)N)C(=O)N[C@@H](C)C(=O)NCC(=O)N[C@@H](CC(C)C)C(=O)N[C@@H](CCC(N)=O)C(=O)N[C@@H](Cc1c[nH]c2ccccc12)C(=O)N1CCC[C@H]1C(=O)N[C@H](C(=O)NCC(=O)N[C@@H](CCCNC(=N)N)C(=O)N[C@H](C(=O)N[C@@H](Cc1cnc[nH]1)C(=O)N[C@@H](CCCNC(=N)N)C(=O)N[C@@H](CC(C)C)C(=O)N[C@@H](CC(C)C)C(=O)N[C@@H](CCCNC(=N)N)C(=O)N[C@@H](CCCCN)C(=O)O)C(C)C)C(C)C)[C@@H](C)O)C(C)C`, the Activity (Escherichia coli) is reported as “Active”, the Activity (Bacillus subtilis [1]) is reported as “Active” and the Activity (Cell membrane [2]) is reported as “Active”. For the same molecule, the Activity (HEK293) was “Non-Toxic” and the Activity (Cell membrane [3]) was “Active”.

In the case of `CC[C@H](C)[C@H](NC(=O)[C@H](CCCNC(=N)N)NC(=O)[C@@H](NC(=O)[C@H](CCCCN)NC(=O)[C@H](CCCCN)NC(=O)[C@H](CC(N)=O)NC(=O)[C@H](CC(=O)O)NC(=O)[C@H](CCCNC(=N)N)NC(=O)[C@H](C)N)[C@@H](C)O)C(=O)N[C@@H](Cc1c[nH]c2ccccc12)C(=O)N1CCC[C@H]1C(=O)N[C@@H](CCCNC(=N)N)C(=O)N[C@@H](Cc1cnc[nH]1)C(=O)N[C@@H](CC(C)C)C(=O)N[C@@H](CCC(N)=O)C(=O)N[C@@H](CC(C)C)C(=O)N[C@@H](C)C(=O)N[C@H](C(=O)N[C@@H](CCCNC(=N)N)C(=O)N[C@@H](CC(N)=O)C(=O)N[C@@H](C)C(=O)N[C@H](C(=O)N[C@@H](CCCNC(=N)N)C(=O)N[C@@H](CO)C(=O)N[C@@H](CO)C(=O)N[C@@H](CCCNC(=N)N)C(=O)N[C@@H](C)C(=O)NCC(=O)N[C@@H](CC(C)C)C(=O)N[C@@H](CCC(N)=O)C(=O)N[C@@H](Cc1c[nH]c2ccccc12)C(=O)N1CCC[C@H]1C(=O)N[C@H](C(=O)NCC(=O)N[C@@H](CCCNC(=N)N)C(=O)N[C@H](C(=O)N[C@@H](Cc1cnc[nH]1)C(=O)N[C@@H](CCCNC(=N)N)C(=O)N[C@@H](CC(C)C)C(=O)N[C@@H](CC(C)C)C(=O)N[C@@H](CCCNC(=N)N)C(=O)N[C@@H](CCCCN)C(=O)O)C(C)C)C(C)C)[C@@H](C)O)C(C)C`, the Activity (Escherichia coli) is reported as “Active”, the Activity (Bacillus subtilis [1]) is reported as “Active” and the Activity (Cell membrane [2]) is reported as “Active”. For the same molecule, the Activity (HEK293) was “Non-Toxic” and the Activity (Cell membrane [3]) was “Active”.

`CC[C@H](C)[C@H](NC(=O)[C@H](CCCNC(=N)N)NC(=O)[C@@H](NC(=O)[C@H](CCCCN)NC(=O)[C@H](CCCCN)NC(=O)[C@H](CC(N)=O)NC(=O)[C@H](CC(=O)O)NC(=O)[C@H](CCCNC(=N)N)NC(=O)[C@H](C)NC(=O)[C@H](CCCCN)NC(=O)[C@H](CCCNC(=N)N)NC(=O)[C@H](CC(C)C)NC(=O)[C@H](CC(C)C)NC(=O)[C@H](CCCNC(=N)N)NC(=O)[C@H](Cc1cnc[nH]1)NC(=O)[C@@H](NC(=O)[C@H](CCCNC(=N)N)NC(=O)CNC(=O)[C@@H](NC(=O)[C@@H]1CCCN1C(=O)[C@H](Cc1c[nH]c2ccccc12)NC(=O)[C@H](CCC(N)=O)NC(=O)[C@H](CC(C)C)NC(=O)CNC(=O)[C@H](C)NC(=O)[C@H](CCCNC(=N)N)NC(=O)[C@H](CO)NC(=O)[C@H](CO)NC(=O)[C@H](CCCNC(=N)N)NC(=O)[C@@H](N)[C@@H](C)O)C(C)C)C(C)C)[C@@H](C)O)C(=O)N[C@@H](Cc1c[nH]c2ccccc12)C(=O)N1CCC[C@H]1C(=O)N[C@@H](CCCNC(=N)N)C(=O)N[C@@H](Cc1cnc[nH]1)C(=O)N[C@@H](CC(C)C)C(=O)N[C@@H](CCC(N)=O)C(=O)N[C@@H](CC(C)C)C(=O)N[C@@H](C)C(=O)N[C@H](C(=O)N[C@@H](CCCNC(=N)N)C(=O)N[C@@H](CC(N)=O)C(=O)O)C(C)C` was tested, and the Activity (Escherichia coli) was “Active”, the Activity (Bacillus subtilis [1]) was “Active” and the Activity (Cell membrane [2]) was “Active”. For the same molecule, the Activity (HEK293) was “Non-Toxic” and the Activity (Cell membrane [3]) was “Active”.

In the case of `CC[C@H](C)[C@H](NC(=O)[C@H](CCCNC(=N)N)NC(=O)[C@@H](NC(=O)[C@H](CCCCN)NC(=O)[C@H](CCCCN)NC(=O)[C@H](CC(N)=O)NC(=O)[C@H](CC(=O)O)NC(=O)[C@H](CCCNC(=N)N)NC(=O)[C@H](C)NC(=O)[C@@H]1CCCN1C(=O)[C@H](CCCCN)NC(=O)[C@H](CCCNC(=N)N)NC(=O)[C@H](CC(C)C)NC(=O)[C@H](CC(C)C)NC(=O)[C@H](CCCNC(=N)N)NC(=O)[C@H](Cc1cnc[nH]1)NC(=O)[C@@H](NC(=O)[C@H](CCCNC(=N)N)NC(=O)CNC(=O)[C@@H](NC(=O)[C@@H]1CCCN1C(=O)[C@H](Cc1c[nH]c2ccccc12)NC(=O)[C@H](CCC(N)=O)NC(=O)[C@H](CC(C)C)NC(=O)CNC(=O)[C@H](C)NC(=O)[C@H](CCCNC(=N)N)NC(=O)[C@H](CO)NC(=O)[C@H](CO)NC(=O)[C@H](CCCNC(=N)N)NC(=O)[C@@H](N)[C@@H](C)O)C(C)C)C(C)C)[C@@H](C)O)C(=O)N[C@@H](Cc1c[nH]c2ccccc12)C(=O)N1CCC[C@H]1C(=O)N[C@@H](CCCNC(=N)N)C(=O)N[C@@H](Cc1cnc[nH]1)C(=O)N[C@@H](CC(C)C)C(=O)N[C@@H](CCC(N)=O)C(=O)N[C@@H](CC(C)C)C(=O)N[C@@H](C)C(=O)N[C@H](C(=O)N[C@@H](CCCNC(=N)N)C(=O)N[C@@H](CC(N)=O)C(=O)O)C(C)C`, the Activity (Escherichia coli) is reported as “Active”, the Activity (Bacillus subtilis [1]) is reported as “Active” and the Activity (Cell membrane [2]) is reported as “inactive”. The Activity (HEK293) was “Non-Toxic” and the Activity (Cell membrane [3]) was “Active”.

In the case of `CC(C)C[C@H](NC(=O)CNC(=O)[C@H](C)NC(=O)[C@H](CCCNC(=N)N)NC(=O)[C@H](CO)NC(=O)[C@H](CO)NC(=O)[C@H](CCCNC(=N)N)NC(=O)[C@@H](N)[C@@H](C)O)C(=O)N[C@@H](CCC(N)=O)C(=O)N[C@@H](Cc1c[nH]c2ccccc12)C(=O)N1CCC[C@H]1C(=O)N[C@H](C(=O)NCC(=O)N[C@@H](CCCNC(=N)N)C(=O)N[C@H](C(=O)N[C@@H](Cc1cnc[nH]1)C(=O)N[C@@H](CCCNC(=N)N)C(=O)N[C@@H](CC(C)C)C(=O)N[C@@H](CC(C)C)C(=O)N[C@@H](CCCNC(=N)N)C(=O)N[C@@H](CCCCN)C(=O)O)C(C)C)C(C)C`, the Activity (Escherichia coli) is reported as “Active”, the Activity (Bacillus subtilis [1]) is reported as “Active” and the Activity (Cell membrane [2]) is reported as “Active”. The Activity (HEK293) was “Non-Toxic”, the MIC (Bacillus subtilis [4]) was 18.2 µM (≈ 45 µg/mL) and the Activity (Cell membrane [3]) was “Active”.

For `CC[C@H](C)[C@H](NC(=O)[C@H](CCCNC(=N)N)NC(=O)[C@@H](NC(=O)[C@H](CCCCN)NC(=O)[C@H](CCCCN)NC(=O)[C@H](CC(N)=O)NC(=O)[C@H](CC(=O)O)NC(=O)[C@H](CCCNC(=N)N)NC(=O)[C@H](C)N)[C@@H](C)O)C(=O)N[C@@H](Cc1c[nH]c2ccccc12)C(=O)N1CCC[C@H]1C(=O)N[C@@H](CCCNC(=N)N)C(=O)N[C@@H](Cc1cnc[nH]1)C(=O)N[C@@H](CC(C)C)C(=O)N[C@@H](CCC(N)=O)C(=O)N[C@@H](CC(C)C)C(=O)N[C@@H](C)C(=O)N[C@H](C(=O)N[C@@H](CCCNC(=N)N)C(=O)N[C@@H](CC(N)=O)C(=O)N1CCC[C@H]1C(=O)N[C@H](C(=O)N[C@@H](CCCNC(=N)N)C(=O)N[C@@H](CO)C(=O)N[C@@H](CO)C(=O)N[C@@H](CCCNC(=N)N)C(=O)N[C@@H](C)C(=O)NCC(=O)N[C@@H](CC(C)C)C(=O)N[C@@H](CCC(N)=O)C(=O)N[C@@H](Cc1c[nH]c2ccccc12)C(=O)N1CCC[C@H]1C(=O)N[C@H](C(=O)NCC(=O)N[C@@H](CCCNC(=N)N)C(=O)N[C@H](C(=O)N[C@@H](Cc1cnc[nH]1)C(=O)N[C@@H](CCCNC(=N)N)C(=O)N[C@@H](CC(C)C)C(=O)N[C@@H](CC(C)C)C(=O)N[C@@H](CCCNC(=N)N)C(=O)N[C@@H](CCCCN)C(=O)O)C(C)C)C(C)C)[C@@H](C)O)C(C)C`, the Activity (Escherichia coli) was “Active”, the Activity (Bacillus subtilis [1]) was “Active” and the Activity (Cell membrane [2]) was “Active”. The Activity (HEK293) was “Non-Toxic” and the Activity (Cell membrane [3]) was “Active”.
